Results published in patent US20100267561A1, “HERBICIDAL PYRIDAZINONE DERIVATIVES” (priority 2007, published 2010).

What was measured:
Experiment in all cases: Test B pre-/postemergence plant response
Format in all cases: in vivo
soybean (Glycine max) = system: soybean (Glycine max)
Summary of the method: (§1)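 Visual scoring from 0 (no effect) to 100 (complete control) against untreated controls was done 13 to 15 days after greenhouse treatment. Chemicals were formulated in a surfactant-containing non-phytotoxic solvent and applied to soil preemergence or to 1- to 4-leaf (2-18 cm) plants postemergence.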

[1] = system: common ragweed (Ambrosia elation)
Summary of the method: as §1

[2] = system: woolly cupgrass (Eriochloa villosa)
Summary of the method: as §1

[3] = system: Italian ryegrass (Lolium multiflorum)
Summary of the method: as §1

[4] = system: goosegrass (Eleusine indica)
Summary of the method: as §1

[5] = system: surinam grass (Brachiaria decumbens)
Summary of the method: as §1

[6] = system: catchweed bedstraw (Galium aparine); conditions: Preemergence; for Galium plant response rating: scale 0 to 100
Summary of the method: as §1

kochia (Kochia scoparia) = system: kochia (Kochia scoparia)
Summary of the method: as §1

[7] = system: downy bromegrass (Bromus tectorum); conditions: for Bromegrass, Downy plant response rating: 8 g ai/ha
Summary of the method: as §1

[8] = system: pigweed (Amaranthus retroflexus)
Summary of the method: as §1

[9] = system: large crabgrass (Digitaria sanguinalis)
Summary of the method: as §1

[10] = system: cocklebur (Xanthium strumarium); conditions: for Cocklebur plant response rating: 8 g ai/ha
Summary of the method: as §1

[11] = system: common (oilseed) sunflower (Helianthus annuus); conditions: Preemergence; for Sunflower plant response rating: scale 0 to 100
Summary of the method: as §1

[12] = system: Russian thistle (Salsola iberica); conditions: Preemergence; for Russian Thistle plant response rating: scale 0 to 100
Summary of the method: as §1

[13] = 8 g ai/ha, postemergence, 0-100 scale
[14] = Postemergence, 16 g ai/ha, scale 0 to 100
[15] = Postemergence, 31 g ai/ha, scale 0 to 100
[16] = Postemergence, 62 g ai/ha, scale 0 to 100, 0 no effect, 100 complete control
[17] = Preemergence, 31 g ai/ha, scale 0 to 100 (0 no effect, 100 complete control)
[18] = Preemergence, 62 g ai/ha, 0 to 100 scale, 0 no effect, 100 complete control
[19] = Preemergence, 8 g ai/ha, scale 0 to 100
[20] = Preemergence, 16 g ai/ha, scale 0 to 100
[21] = 31 g ai/ha, scale 0 to 100 (0 no effect, 100 complete control)
[22] = 62 g ai/ha, 0 to 100 scale, 0 no effect, 100 complete control
[23] = Preemergence, 16 g ai/ha, scale 0 to 100 (0 no effect, 100 complete control)

With `Cc1cc(-c2ccc(Cl)cc2)nn1-c1c(OC(=O)OCC(C)C)cnn(C)c1=O` [Compound 57] the “Soybean plant response rating” value (soybean (Glycine max); [13]) was 0, the “Plant response rating, Soybean” value (soybean (Glycine max); [14]) was 0 and the “Plant response rating, Soybean” value (soybean (Glycine max); [15]) was 0. The “Plant response rating, Soybean” value (soybean (Glycine max); [16]) was 0, the “Plant response rating, Soybean” value (soybean (Glycine max); [17]) was 0 and the “Plant response rating, Soybean” value (soybean (Glycine max); [18]) was 0. For the same molecule, the “Soybean plant response rating” value (soybean (Glycine max); [19]) was 0, the “Soybean plant response rating” value (soybean (Glycine max); [20]) was 0 and the “Ragweed plant response rating” value [1, 13] was 0. The “Plant response rating, Ragweed” value [1, 14] was 0, the “Plant response rating, Ragweed” value [1, 15] was 0 and the “Plant response rating, Ragweed” value [1, 16] was 0. The “Plant response rating, Ragweed” value [1, 17] was 0, the “Plant response rating, Ragweed” value [1, 18] was 0 and the “Ragweed plant response rating” value [1, 19] was 0. For the same molecule, the “Ragweed plant response rating” value [1, 20] was 0, the “Cupgrass, Woolly plant response rating” value [2, 13] was 65 and the “Plant response rating, Cupgrass, Woolly” value [2, 14] was 90. The “Plant response rating, Cupgrass, Woolly” value [2, 15] was 100, the “Plant response rating, Cupgrass, Woolly” value [2, 16] was 100 and the “Plant response rating, Cupgrass, Woolly” value [2, 17] was 85. The “Plant response rating, Cupgrass, Woolly” value [2, 18] was 100, the “Cupgrass, Woolly plant response rating” value [2, 19] was 0 and the “Cupgrass, Woolly plant response rating” value [2, 20] was 20. For the same molecule, the “Ryegrass, Italian plant response rating” value [3, 13] was 80, the “Plant response rating, Ryegrass, Italian” value [3, 14] was 95 and the “Plant response rating, Ryegrass, Italian” value [3, 15] was 95. For the same molecule, the “Plant response rating, Ryegrass, Italian” value [3, 16] was 95, the “Plant response rating, Ryegrass, Italian” value [3, 17] was 95 and the “Plant response rating, Ryegrass, Italian” value [3, 18] was 100. For the same molecule, the “Ryegrass, Italian plant response rating” value [3, 19] was 0, the “Ryegrass, Italian plant response rating” value [3, 20] was 70 and the “Goosegrass plant response rating” value [4, 13] was 65. The “Plant response rating, Goosegrass” value [4, 14] was 80, the “Plant response rating, Goosegrass” value [4, 15] was 85 and the “Plant response rating, Goosegrass” value [4, 16] was 90. For the same molecule, the “Plant response rating, Goosegrass” value [4, 17] was 98, the “Plant response rating, Goosegrass” value [4, 18] was 100 and the “Goosegrass plant response rating” value [4, 19] was 0. The “Goosegrass plant response rating” value [4, 20] was 0, the “Surinam Grass plant response rating” value [5, 13] was 65 and the “Plant response rating, Surinam Grass” value [5, 14] was 75. The “Plant response rating, Surinam Grass” value [5, 15] was 100, the “Plant response rating, Surinam Grass” value [5, 16] was 100 and the “Plant response rating, Surinam Grass” value [5, 17] was 100. The “Plant response rating, Surinam Grass” value [5, 18] was 100, the “Surinam Grass plant response rating” value [5, 19] was 60 and the “Surinam Grass plant response rating” value [5, 20] was 98. The “Plant response rating, Galium” value [6, 21] was 0, the “Plant response rating, Galium” value [6, 22] was 0 and the “Galium plant response rating” value ([6]; 8 g ai/ha) was 0. The “Galium plant response rating” value ([6]; 16 g ai/ha) was 0, the “Kochia plant response rating” value (kochia (Kochia scoparia); [13]) was 0 and the “Plant response rating, Kochia” value (kochia (Kochia scoparia); [14]) was 0. For the same molecule, the “Plant response rating, Kochia” value (kochia (Kochia scoparia); [15]) was 0, the “Plant response rating, Kochia” value (kochia (Kochia scoparia); [16]) was 0 and the “Plant response rating, Kochia” value (kochia (Kochia scoparia); [17]) was 0. For the same molecule, the “Plant response rating, Kochia” value (kochia (Kochia scoparia); [18]) was 0, the “Kochia plant response rating” value (kochia (Kochia scoparia); [19]) was 0 and the “Kochia plant response rating” value (kochia (Kochia scoparia); [20]) was 0. The “Bromegrass, Downy plant response rating” value ([7]; postemergence, 0-100 scale) was 0, the “Plant response rating, Bromegrass, Downy” value [7, 14] was 20 and the “Plant response rating, Bromegrass, Downy” value [7, 15] was 50. The “Plant response rating, Bromegrass, Downy” value [7, 16] was 60, the “Plant response rating, Bromegrass, Downy” value [7, 23] was 0 and the “Plant response rating, Bromegrass, Downy” value [7, 17] was 65. For the same molecule, the “Plant response rating, Bromegrass, Downy” value [7, 18] was 70, the “Bromegrass, Downy plant response rating” value ([7]; Preemergence, scale 0 to 100) was 0 and the “Pigweed plant response rating” value [8, 13] was 0. The “Plant response rating, Pigweed” value [8, 14] was 0, the “Plant response rating, Pigweed” value [8, 15] was 0 and the “Plant response rating, Pigweed” value [8, 16] was 0. The “Plant response rating, Pigweed” value [8, 17] was 0, the “Plant response rating, Pigweed” value [8, 18] was 0 and the “Pigweed plant response rating” value [8, 19] was 0. For the same molecule, the “Pigweed plant response rating” value [8, 20] was 0, the “Crabgrass, Large plant response rating” value [9, 13] was 75 and the “Plant response rating, Crabgrass, Large” value [9, 14] was 95. For the same molecule, the “Plant response rating, Crabgrass, Large” value [9, 15] was 98, the “Plant response rating, Crabgrass, Large” value [9, 16] was 100 and the “Plant response rating, Crabgrass, Large” value [9, 17] was 98. For the same molecule, the “Plant response rating, Crabgrass, Large” value [9, 18] was 100, the “Crabgrass, Large plant response rating” value [9, 19] was 0 and the “Crabgrass, Large plant response rating” value [9, 20] was 0. For the same molecule, the “Cocklebur plant response rating” value ([10]; postemergence, 0-100 scale) was 0, the “Plant response rating, Cocklebur” value [10, 14] was 0 and the “Plant response rating, Cocklebur” value [10, 15] was 0. For the same molecule, the “Plant response rating, Cocklebur” value [10, 16] was 0, the “Plant response rating, Cocklebur” value [10, 23] was 0 and the “Plant response rating, Cocklebur” value [10, 17] was 0. For the same molecule, the “Plant response rating, Cocklebur” value [10, 18] was 0, the “Cocklebur plant response rating” value ([10]; Preemergence, scale 0 to 100) was 0 and the “Plant response rating, Sunflower” value [11, 21] was 0. The “Plant response rating, Sunflower” value [11, 22] was 0, the “Sunflower plant response rating” value ([11]; 8 g ai/ha) was 0 and the “Sunflower plant response rating” value ([11]; 16 g ai/ha) was 0. For the same molecule, the “Plant response rating, Russian Thistle” value [12, 21] was 0, the “Plant response rating, Russian Thistle” value [12, 22] was 0 and the “Russian Thistle plant response rating” value ([12]; 8 g ai/ha) was 0. The “Russian Thistle plant response rating” value ([12]; 16 g ai/ha) was 0.
